Measurements as given in BigSolDB 2.1.

Compound: O=[N+]([O-])c1cc([N+](=O)[O-])c(Cl)cc1Cl
- solubility (mole fraction) (in 1,2-dichloroethane, 298.15 K): 0.138
- solubility (mole fraction) (in 1,2-dichloroethane, 303.15 K): 0.156
- solubility (mole fraction) (in 1,2-dichloroethane, 308.15 K): 0.176
- solubility (mole fraction) (in 1,2-dichloroethane, 313.15 K): 0.199
- solubility (mole fraction) (in 1,2-dichloroethane, 318.15 K): 0.224
- solubility (mole fraction) (in 1,2-dichloroethane, 323.15 K): 0.251
- solubility (mole fraction) (in 1,2-dichloroethane, 328.15 K): 0.282
- solubility (mole fraction) (in 1,2-dichloroethane, 333.15 K): 0.316
- solubility (mole fraction) (in DMF, 298.15 K): 0.286
- solubility (mole fraction) (in DMF, 303.15 K): 0.308
- solubility (mole fraction) (in DMF, 308.15 K): 0.329
- solubility (mole fraction) (in DMF, 313.15 K): 0.353
- solubility (mole fraction) (in DMF, 318.15 K): 0.378
- solubility (mole fraction) (in DMF, 323.15 K): 0.406
- solubility (mole fraction) (in DMF, 328.15 K): 0.436
- solubility (mole fraction) (in DMF, 333.15 K): 0.469
- solubility (mole fraction) (in DMSO, 298.15 K): 0.192
- solubility (mole fraction) (in DMSO, 303.15 K): 0.215
- solubility (mole fraction) (in DMSO, 308.15 K): 0.241
- solubility (mole fraction) (in DMSO, 313.15 K): 0.269
- solubility (mole fraction) (in DMSO, 318.15 K): 0.3
- solubility (mole fraction) (in DMSO, 323.15 K): 0.332
- solubility (mole fraction) (in DMSO, 328.15 K): 0.368
- solubility (mole fraction) (in DMSO, 333.15 K): 0.408
- solubility (mole fraction) (in NMP, 298.15 K): 0.362
- solubility (mole fraction) (in NMP, 303.15 K): 0.381
- solubility (mole fraction) (in NMP, 308.15 K): 0.4
- solubility (mole fraction) (in NMP, 313.15 K): 0.421
- solubility (mole fraction) (in NMP, 318.15 K): 0.444
- solubility (mole fraction) (in NMP, 323.15 K): 0.468
- solubility (mole fraction) (in NMP, 328.15 K): 0.495
- solubility (mole fraction) (in NMP, 333.15 K): 0.524
- solubility (mole fraction) (in acetone, 288.15 K): 0.169
- solubility (mole fraction) (in acetone, 293.15 K): 0.187
- solubility (mole fraction) (in acetone, 298.15 K): 0.206
- solubility (mole fraction) (in acetone, 303.15 K): 0.227
- solubility (mole fraction) (in acetone, 308.15 K): 0.249
- solubility (mole fraction) (in acetone, 313.15 K): 0.273
- solubility (mole fraction) (in acetone, 318.15 K): 0.298
- solubility (mole fraction) (in acetone, 323.15 K): 0.326
- solubility (mole fraction) (in acetonitrile, 298.15 K): 0.129
- solubility (mole fraction) (in acetonitrile, 303.15 K): 0.154
- solubility (mole fraction) (in acetonitrile, 308.15 K): 0.183
- solubility (mole fraction) (in acetonitrile, 313.15 K): 0.217
- solubility (mole fraction) (in acetonitrile, 318.15 K): 0.254
- solubility (mole fraction) (in acetonitrile, 323.15 K): 0.296
- solubility (mole fraction) (in acetonitrile, 328.15 K): 0.344
- solubility (mole fraction) (in acetonitrile, 333.15 K): 0.397
- solubility (mole fraction) (in chloroform, 293.15 K): 0.108
- solubility (mole fraction) (in chloroform, 298.15 K): 0.128
- solubility (mole fraction) (in chloroform, 303.15 K): 0.149
- solubility (mole fraction) (in chloroform, 308.15 K): 0.175
- solubility (mole fraction) (in chloroform, 313.15 K): 0.205
- solubility (mole fraction) (in chloroform, 318.15 K): 0.238
- solubility (mole fraction) (in chloroform, 323.15 K): 0.274
- solubility (mole fraction) (in chloroform, 328.15 K): 0.319
- solubility (mole fraction) (in dichloromethane, 278.15 K): 0.0915
- solubility (mole fraction) (in dichloromethane, 283.15 K): 0.106
- solubility (mole fraction) (in dichloromethane, 288.15 K): 0.121
- solubility (mole fraction) (in dichloromethane, 293.15 K): 0.138
- solubility (mole fraction) (in dichloromethane, 298.15 K): 0.158
- solubility (mole fraction) (in dichloromethane, 303.15 K): 0.181
- solubility (mole fraction) (in dichloromethane, 308.15 K): 0.205
- solubility (mole fraction) (in ethanol, 298.15 K): 0.00702
- solubility (mole fraction) (in ethanol, 303.15 K): 0.00858
- solubility (mole fraction) (in ethanol, 308.15 K): 0.0104
- solubility (mole fraction) (in ethanol, 313.15 K): 0.0126
- solubility (mole fraction) (in ethanol, 318.15 K): 0.0156
- solubility (mole fraction) (in ethanol, 323.15 K): 0.0189
- solubility (mole fraction) (in ethanol, 328.15 K): 0.0232
- solubility (mole fraction) (in ethanol, 333.15 K): 0.0282
- solubility (mole fraction) (in ethyl acetate, 298.15 K): 0.17
- solubility (mole fraction) (in ethyl acetate, 303.15 K): 0.189
- solubility (mole fraction) (in ethyl acetate, 308.15 K): 0.207
- solubility (mole fraction) (in ethyl acetate, 313.15 K): 0.228
- solubility (mole fraction) (in ethyl acetate, 318.15 K): 0.251
- solubility (mole fraction) (in ethyl acetate, 323.15 K): 0.277
- solubility (mole fraction) (in ethyl acetate, 328.15 K): 0.306
- solubility (mole fraction) (in ethyl acetate, 333.15 K): 0.336
- solubility (mole fraction) (in isopropanol, 298.15 K): 0.00322
- solubility (mole fraction) (in isopropanol, 303.15 K): 0.00429
- solubility (mole fraction) (in isopropanol, 308.15 K): 0.00581
- solubility (mole fraction) (in isopropanol, 313.15 K): 0.00763
- solubility (mole fraction) (in isopropanol, 318.15 K): 0.01
- solubility (mole fraction) (in isopropanol, 323.15 K): 0.0131
- solubility (mole fraction) (in isopropanol, 328.15 K): 0.0173
- solubility (mole fraction) (in isopropanol, 333.15 K): 0.0223
- solubility (mole fraction) (in methanol, 298.15 K): 0.00929
- solubility (mole fraction) (in methanol, 303.15 K): 0.0112
- solubility (mole fraction) (in methanol, 308.15 K): 0.0135
- solubility (mole fraction) (in methanol, 313.15 K): 0.0163
- solubility (mole fraction) (in methanol, 318.15 K): 0.0197
- solubility (mole fraction) (in methanol, 323.15 K): 0.0236
- solubility (mole fraction) (in methanol, 328.15 K): 0.0284
- solubility (mole fraction) (in methanol, 333.15 K): 0.0341
- solubility (mole fraction) (in n-butanol, 298.15 K): 0.00624
- solubility (mole fraction) (in n-butanol, 303.15 K): 0.00794
- solubility (mole fraction) (in n-butanol, 308.15 K): 0.0101
- solubility (mole fraction) (in n-butanol, 313.15 K): 0.0128
- solubility (mole fraction) (in n-butanol, 318.15 K): 0.016
- solubility (mole fraction) (in n-butanol, 323.15 K): 0.0201
- solubility (mole fraction) (in n-butanol, 328.15 K): 0.025
- solubility (mole fraction) (in n-butanol, 333.15 K): 0.0308
- solubility (mole fraction) (in tetrachloromethane, 298.15 K): 0.0153
- solubility (mole fraction) (in tetrachloromethane, 303.15 K): 0.0207
- solubility (mole fraction) (in tetrachloromethane, 308.15 K): 0.0276
- solubility (mole fraction) (in tetrachloromethane, 313.15 K): 0.0368
- solubility (mole fraction) (in tetrachloromethane, 318.15 K): 0.049
- solubility (mole fraction) (in tetrachloromethane, 323.15 K): 0.0638
- solubility (mole fraction) (in tetrachloromethane, 328.15 K): 0.0835
- solubility (mole fraction) (in tetrachloromethane, 333.15 K): 0.108
- solubility (mole fraction) (in toluene, 298.15 K): 0.201
- solubility (mole fraction) (in toluene, 303.15 K): 0.225
- solubility (mole fraction) (in toluene, 308.15 K): 0.25
- solubility (mole fraction) (in toluene, 313.15 K): 0.277
- solubility (mole fraction) (in toluene, 318.15 K): 0.307
- solubility (mole fraction) (in toluene, 323.15 K): 0.34
- solubility (mole fraction) (in toluene, 328.15 K): 0.374
- solubility (mole fraction) (in toluene, 333.15 K): 0.413
